pIC50: −log10 of the molar value. Where two headings read alike, the source gives them in different places.
Columns and labels:
[1] = tested on: gastric acid secretion in pylorus-ligated rats; assay: Gastric acid inhibition in pylorus-ligated rats; type: in vivo; settings: oral 2 mg/kg, pylorus-ligated rats, relative to vehicle
Description: The rats were fasted overnight with ad libitum access to water. Drugs and vehicle were administered orally to rats in a blinded manner. The pylorus was ligated under ether anesthesia within 1 h after drug and vehicle administration, and the abdomen was closed by suturing. At 4 h after pyloric ligation, the rats were sacrificed by CO2 asphyxiation, and the stomach was removed ([Hori et al., 2010]). The gastric contents were collected and centrifuged at 3,000 rpm for 10 min. The volume of each sample was measured, the gastric acid concentration was determined by acid-base titration, and the total acidity was calculated.

Gastric H+/K+-ATPase = molecular target: T1, Gastric H+/K+-ATPase (Oryctolagus cuniculus, UniProt P27112); assay: Inhibition of H+/K+-ATPase activity (Malachite Green Pi assay); type: biochemical, rabbit
T1 construct: Gastric H^+/K^+-ATPase was prepared from rabbit glands; from tissue; host or cells: rabbit gastric glands
Description: The H^+/K^+-ATPase inhibition reaction was performed in buffer (50 mM Tris-HCl, 5 mM magnesium chloride, 10 μM valinomycin, pH 6.5) with or without 20 mM potassium chloride (KCl), and inorganic phosphate (Pi) was detected using Malachite Green solution, made from 0.1% malachite green, 1.5% hexaammonium molybdate, and 0.2% Tween-20 in a ratio of 100:25:2 ([Skou, 1982]; [Feng et al., 2011]). Gastric H^+/K^+-ATPase was prepared from rabbit glands, as described previously ([Kondo et al., 2012]; [Arikawa et al., 2012]). The reaction occurred in a 96-well plate with a total volume of 50 µL/well, including buffer, enzyme, ATP, and drug. After 30 min at 37 °C for enzyme stability, ATP was added at 0.2 mM to start the reaction, which was optimized from the titration experiments. The reaction lasted 20 min at 37 °C, followed by the addition of Malachite Green for the colorimetric assay. The enzyme control wells contained the full enzyme system, while the buffer control wells contained only buffer to correct for background values. Absorbance was measured at 620 nm using a plate reader (SpectraMax M5). The inhibition rate was calculated using the following formula, accounting for the enzyme activity in the presence and absence of K^+: Inhibition Rate %=ODwith K+and enzyme,without drug−ODwith K+and enzyme,with drug /ODwith K+and enzyme,without drug−ODwithout K+and enzyme,without drug×100 where “OD with K^+ and enzyme, without drug” is the optical density measured at 620 nm in the presence of K^+ and enzyme, without the tested drug (enzyme control wells); “OD with K^+ and enzyme, with drug” is the optical density measured at 620 nm in the presence of K^+ and enzyme, with the tested drug; and “OD without K^+ and enzyme, without drug” is the optical density measured at 620 nm in the absence of K^+ and enzyme, without the tested drug (buffer control wells).

T1 sequence (P27112 whole entry): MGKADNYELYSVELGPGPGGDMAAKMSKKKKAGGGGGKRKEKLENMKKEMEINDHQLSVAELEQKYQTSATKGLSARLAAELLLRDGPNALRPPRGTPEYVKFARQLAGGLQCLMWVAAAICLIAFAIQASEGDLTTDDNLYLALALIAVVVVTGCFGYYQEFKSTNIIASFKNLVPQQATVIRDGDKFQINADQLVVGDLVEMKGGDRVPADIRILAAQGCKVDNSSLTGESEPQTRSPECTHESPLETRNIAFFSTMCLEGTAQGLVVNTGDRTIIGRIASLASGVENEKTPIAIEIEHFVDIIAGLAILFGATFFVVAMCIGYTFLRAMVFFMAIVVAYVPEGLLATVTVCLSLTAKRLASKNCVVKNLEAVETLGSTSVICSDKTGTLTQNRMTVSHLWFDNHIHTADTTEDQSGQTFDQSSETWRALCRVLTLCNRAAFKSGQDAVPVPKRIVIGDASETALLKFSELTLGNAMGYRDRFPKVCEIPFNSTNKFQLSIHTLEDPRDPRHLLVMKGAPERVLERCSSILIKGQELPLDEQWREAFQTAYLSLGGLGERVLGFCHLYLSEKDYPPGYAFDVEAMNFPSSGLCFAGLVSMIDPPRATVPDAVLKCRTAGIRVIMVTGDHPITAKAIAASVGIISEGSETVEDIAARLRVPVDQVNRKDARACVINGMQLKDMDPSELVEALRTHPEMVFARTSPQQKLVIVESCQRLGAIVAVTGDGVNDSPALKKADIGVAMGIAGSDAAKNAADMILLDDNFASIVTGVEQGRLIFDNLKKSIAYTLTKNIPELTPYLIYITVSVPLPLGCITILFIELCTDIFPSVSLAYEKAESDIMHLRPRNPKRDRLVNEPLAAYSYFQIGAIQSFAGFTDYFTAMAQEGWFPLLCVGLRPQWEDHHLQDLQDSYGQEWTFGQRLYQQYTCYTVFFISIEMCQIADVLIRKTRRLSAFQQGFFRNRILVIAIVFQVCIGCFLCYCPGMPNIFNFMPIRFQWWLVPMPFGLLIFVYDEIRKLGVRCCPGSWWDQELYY
T1 sequence (P18597 whole entry partner): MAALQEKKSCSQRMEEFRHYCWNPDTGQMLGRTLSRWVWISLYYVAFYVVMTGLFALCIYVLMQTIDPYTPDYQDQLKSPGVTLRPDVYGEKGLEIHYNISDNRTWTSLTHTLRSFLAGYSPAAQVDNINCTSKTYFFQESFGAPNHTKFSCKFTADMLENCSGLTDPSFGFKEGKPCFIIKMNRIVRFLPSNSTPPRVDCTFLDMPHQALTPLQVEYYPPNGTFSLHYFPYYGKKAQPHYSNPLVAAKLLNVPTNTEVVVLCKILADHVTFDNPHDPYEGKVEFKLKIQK

Inhibitory effect on H+/K+-ATPase in the absence of K+ (Gastric H+/K+-ATPase; absence of K+): No measurable inhibitory effect | pIC50 (Gastric H+/K+-ATPase; in the presence of K+ (20 mM KCl), pH 6.5, read-out: IC50, H+/K+-ATPase inhibition): 7.77 | pIC50 (Gastric H+/K+-ATPase; in the presence of potassium ions, rabbit gastric glands, read-out: IC50 (Figure 7A)): 7.77
SMILES: CNCc1cc(-c2ccccc2F)n(S(=O)(=O)c2cccnc2)c1 [vonoprazan, 1-[5-(2-fluorophenyl)-1-(pyridin-3-ylsulfonyl)-1H-pyrrol-3-yl]-N-methylmethanamine]
Total acidity inhibitory rate (%) [1]: 47%
